Experimental data as given in patent publication US20050187288A1, “Beta-lapachone and methods of treating cancer” (priority 2004, published 2005).

Key:
G480 lung cancer cells = experiment: Colony formation assay, single agents and combination; assay type: cell-based; settings: G480; β-lapachone 4 μM, 4 hours; average (SEM) of three experiments
Text: Control plates received the same volume of DMSO alone. […] Treated wells were presented as percentage of control. Data were presented as an average (+SEM) from three independent experiments.

ASPC-1 = experiment: Colony formation assay, combination with Taxol; assay type: cell-based, human; settings: β-Lapachone 4 μM, Taxol 0.2 μM, 4 hours
Experimental: Control wells were treated with equivalent volumes of DMSO. After 4 hours cells were rinsed and fresh medium is added. Cultures were observed daily for 10-20 days and then were fixed and stained. […] DNA laddering formation and annexin staining indicate that cell death is due to apoptosis.

60 cancer cell lines = settings: FDA approved agents, publicly available data; cited from earlier work

Row | SMILES | Colonies (percent control) (G480 lung cancer cells) | Colonies, Percentage of control (ASPC-1) | mean LC50 across all cells compared with the mean of β-lapachone (60 cancer cell lines)
1 | CC(=O)O[C@H]1C(=O)[C@@]2(C)[C@H]([C@H](OC(=O)c3ccccc3)[C@]3(O)C[C@H](OC(=O)[C@H](O)[C@@H](NC(=O)c4ccccc4)c4ccccc4)C(C)=C1C3(C)C)[C@]1(OC(C)=O)CO[C@@H]1C[C@@H]2O [Taxol ®, paclitaxel, reference compound] | 39 (2.6) percent control | 71 (0.8) Percentage of control | –
2 | O=C1c2c(O)ccc(O)c2C(=O)c2c(NCCNCCO)ccc(NCCNCCO)c21 [mitoxantrone] | – | – | equals it
